Measurements from ChEMBL document CHEMBL1158343, “Synthesis, antimicrobial and antiviral evaluation of substituted imidazole derivatives” (Eur J Med Chem, 2009).
In brackets after ≈: the same amount, converted by molar mass.

Test system: Vaccinia virus
Assay: Antiviral activity against Vaccinia virus infected in human HEL cells assessed as reduction in virus-induced cytopathogenicity after 3 days
Format: functional, organism-based
Conditions: Orthopoxvirus vaccinia, 72 h

| SMILES | EC50 |
| --- | --- |
| O=C(c1ccc([N+](=O)[O-])cc1)n1ccnc1-c1ccccc1[N+](=O)[O-] | > 100 µg/mL |
| O=C(c1ccccc1Br)n1ccnc1-c1ccccc1[N+](=O)[O-] | > 100 µg/mL |
| O=C(c1ccccc1Br)n1ccnc1-c1ccc([N+](=O)[O-])cc1 | > 100 µg/mL |
| O=C(O)c1ccccc1-c1nccn1C(=O)c1ccc([N+](=O)[O-])cc1 | > 100 µg/mL |
| O=C(c1ccc([N+](=O)[O-])cc1)n1ccnc1-c1ccc([N+](=O)[O-])cc1 | 4 µg/mL (≈ 11.8 µM) |
| O=C(c1ccc([N+](=O)[O-])cc1)n1ccnc1-c1ccc(Cl)cc1 | 2 µg/mL (≈ 6.1 µM) |
| O=C(c1ccc([N+](=O)[O-])cc1)n1ccnc1-c1ccccc1Cl | > 100 µg/mL |
| COc1ccc(-c2nccn2C(=O)c2ccc([N+](=O)[O-])cc2)cc1 | > 100 µg/mL |
| O=C(c1ccccc1Br)n1ccnc1-c1ccccc1Cl | > 100 µg/mL |
| O=C(c1ccc([N+](=O)[O-])cc1)n1ccnc1-c1cccc(Cl)c1 | 45 µg/mL (≈ 137 µM) |
| O=C(c1ccccc1Br)n1ccnc1-c1cccc([N+](=O)[O-])c1 | > 100 µg/mL |
| COc1ccc(-c2nccn2C(=O)c2ccccc2Br)cc1 | > 100 µg/mL |
| O=C(c1ccc([N+](=O)[O-])cc1)n1ccnc1-c1cccc([N+](=O)[O-])c1 | > 100 µg/mL |
| O=C(c1ccccc1Br)n1ccnc1-c1ccc(Cl)cc1 | > 100 µg/mL |
| O=c1[nH]c(=O)n([C@H]2C[C@H](O)[C@@H](CO)O2)cc1/C=C/Br [BRIVUDINE] | 5 µg/mL (≈ 15 µM) |
| Nc1ccn(C[C@@H](CO)OCP(=O)(O)O)c(=O)n1.O.O [CIDOFOVIR] | 7 µg/mL |
| Nc1nc2c(ncn2COC(CO)CO)c(=O)[nH]1 [GANCICLOVIR] | > 100 µg/mL |
| NC(=O)c1ncn([C@@H]2O[C@H](CO)[C@@H](O)[C@H]2O)n1 [RIBAVIRIN] | > 250 µg/mL |
